Reference: ChEMBL document CHEMBL2046376, “Synthesis and antimicrobial activity of amide derivatives of polyether antibiotic-salinomycin” (2012)

Key:
Assay type in all cases: functional
Staphylococcus aureus [1] = assay: Antibacterial activity against Staphylococcus aureus ATCC 6538 after 18 hrs by twofold serial agar dilution technique; conditions: ATCC 6538, 18 h
Escherichia coli [2] = assay: Antibacterial activity against Escherichia coli ATCC 10538 assessed as zone of inhibition at 400 ug/disc after 18 hrs by disc diffusion method; conditions: ATCC 10538, 18 h, read-out: DIZ
Pseudomonas aeruginosa [3] = assay: Antibacterial activity against Pseudomonas aeruginosa ATCC 27853 assessed as zone of inhibition at 400 ug/disc after 18 hrs by disc diffusion method; conditions: ATCC 27853, 18 h, read-out: DIZ
Escherichia coli [4] = assay: Antibacterial activity against Escherichia coli ATCC 25922 assessed as zone of inhibition at 400 ug/disc after 18 hrs by disc diffusion method; conditions: ATCC 25922, 18 h, read-out: DIZ
[5] = test system: Staphylococcus epidermidis; assay: Antibacterial activity against Staphylococcus epidermidis ATCC 35984 assessed as zone of inhibition at 400 ug/disc after 18 hrs by disc diffusion method; conditions: ATCC 35984, 18 h, read-out: DIZ
Pseudomonas aeruginosa [6] = assay: Antibacterial activity against Pseudomonas aeruginosa ATCC 15442 after 18 hrs by twofold serial agar dilution technique; conditions: ATCC 15442, 18 h
Staphylococcus aureus [7] = assay: Antibacterial activity against Staphylococcus aureus ATCC 29213 assessed as zone of inhibition at 400 ug/disc after 18 hrs by disc diffusion method; conditions: ATCC 29213, 18 h, read-out: DIZ
Proteus vulgaris [8] = assay: Antibacterial activity against Proteus vulgaris NCTC 4635 assessed as zone of inhibition at 400 ug/disc after 18 hrs by disc diffusion method; conditions: NCTC 4635, 18 h, read-out: DIZ
Escherichia coli [9] = assay: Antibacterial activity against Escherichia coli ATCC 25922 after 18 hrs by twofold serial agar dilution technique; conditions: ATCC 25922, 18 h
Staphylococcus aureus [10] = assay: Antibacterial activity against Staphylococcus aureus ATCC 6538 assessed as zone of inhibition at 400 ug/disc after 18 hrs by disc diffusion method; conditions: ATCC 6538, 18 h, read-out: DIZ
Staphylococcus aureus [11] = assay: Antibacterial activity against Staphylococcus aureus ATCC 25923 after 18 hrs by twofold serial agar dilution technique; conditions: ATCC 25923, 18 h
Escherichia coli [12] = assay: Antibacterial activity against Escherichia coli NCTC 8196 assessed as zone of inhibition at 400 ug/disc after 18 hrs by disc diffusion method; conditions: NCTC 8196, 18 h, read-out: DIZ
Candida albicans [13] = assay: Antifungal activity against Candida albicans ATCC 10231 after 24 hrs by twofold serial agar dilution technique; conditions: ATCC 10231, 24 h
Pseudomonas aeruginosa [14] = assay: Antibacterial activity against Pseudomonas aeruginosa NCTC 6749 assessed as zone of inhibition at 400 ug/disc after 18 hrs by disc diffusion method; conditions: NCTC 6749, 18 h, read-out: DIZ
Escherichia coli [15] = assay: Antibacterial activity against Escherichia coli ATCC 10538 after 18 hrs by twofold serial agar dilution technique; conditions: ATCC 10538, 18 h
[16] = test system: Staphylococcus epidermidis; assay: Antibacterial activity against Staphylococcus epidermidis ATCC 35984 after 18 hrs by twofold serial agar dilution technique; conditions: ATCC 35984, 18 h
Staphylococcus aureus [17] = assay: Antibacterial activity against Staphylococcus aureus NCTC 4163 assessed as zone of inhibition at 400 ug/disc after 18 hrs by disc diffusion method; conditions: NCTC 4163, 18 h, read-out: DIZ
[18] = test system: Staphylococcus epidermidis; assay: Antibacterial activity against Staphylococcus epidermidis ATCC 12228 after 18 hrs by twofold serial agar dilution technique; conditions: ATCC 12228, 18 h
Escherichia coli [19] = assay: Antibacterial activity against Escherichia coli NCTC 8196 after 18 hrs by twofold serial agar dilution technique; conditions: NCTC 8196, 18 h
Candida albicans [20] = assay: Antifungal activity against Candida albicans ATCC 90028 after 24 hrs by twofold serial agar dilution technique; conditions: ATCC 90028, 24 h
Pseudomonas aeruginosa [21] = assay: Antibacterial activity against Pseudomonas aeruginosa NCTC 6749 after 18 hrs by twofold serial agar dilution technique; conditions: NCTC 6749, 18 h
Staphylococcus aureus [22] = assay: Antibacterial activity against Staphylococcus aureus NCTC 4163 after 18 hrs by twofold serial agar dilution technique; conditions: NCTC 4163, 18 h
[23] = test system: Staphylococcus epidermidis; assay: Antibacterial activity against Staphylococcus epidermidis ATCC 12228 assessed as zone of inhibition at 400 ug/disc after 18 hrs by disc diffusion method; conditions: ATCC 12228, 18 h, read-out: DIZ
[24] = test system: Bordetella bronchiseptica; assay: Antibacterial activity against Bordetella bronchiseptica ATCC 4617 after 18 hrs by twofold serial agar dilution technique; conditions: ATCC 4617, 18 h
Pseudomonas aeruginosa [25] = assay: Antibacterial activity against Pseudomonas aeruginosa ATCC 27853 after 18 hrs by twofold serial agar dilution technique; conditions: ATCC 27853, 18 h
[26] = test system: Bordetella bronchiseptica; assay: Antibacterial activity against Bordetella bronchiseptica ATCC 4617 assessed as zone of inhibition at 400 ug/disc after 18 hrs by disc diffusion method; conditions: ATCC 4617, 18 h, read-out: DIZ
Pseudomonas aeruginosa [27] = assay: Antibacterial activity against Pseudomonas aeruginosa ATCC 15442 assessed as zone of inhibition at 400 ug/disc after 18 hrs by disc diffusion method; conditions: ATCC 15442, 18 h, read-out: DIZ
Candida parapsilosis = assay: Antifungal activity against Candida parapsilosis ATCC 22019 after 24 hrs by twofold serial agar dilution technique; conditions: Lodderomyces parapsilosis, ATCC 22019, 24 h
Proteus vulgaris [28] = assay: Antibacterial activity against Proteus vulgaris NCTC 4635 after 18 hrs by twofold serial agar dilution technique; conditions: NCTC 4635, 18 h
Staphylococcus aureus [29] = assay: Antibacterial activity against Staphylococcus aureus ATCC 29213 after 18 hrs by twofold serial agar dilution technique; conditions: ATCC 29213, 18 h
Staphylococcus aureus [30] = assay: Antibacterial activity against Staphylococcus aureus ATCC 25923 assessed as zone of inhibition at 400 ug/disc after 18 hrs by disc diffusion method; conditions: ATCC 25923, 18 h, read-out: DIZ

SMILES	MIC (Staphylococcus aureus [1]) [µg/mL]	zone of inhibition at 400 µg/disc (Escherichia coli [2]) [mm]	zone of inhibition at 400 µg/disc (Pseudomonas aeruginosa [3]) [mm]	zone of inhibition at 400 µg/disc (Escherichia coli [4]) [mm]	zone of inhibition at 400 µg/disc [5] [mm]	MIC (Pseudomonas aeruginosa [6]) [µg/mL]	zone of inhibition at 400 µg/disc (Staphylococcus aureus [7]) [mm]	zone of inhibition at 400 µg/disc (Proteus vulgaris [8]) [mm]	MIC (Escherichia coli [9]) [µg/mL]	zone of inhibition at 400 µg/disc (Staphylococcus aureus [10]) [mm]	MIC (Staphylococcus aureus [11]) [µg/mL]	zone of inhibition at 400 µg/disc (Escherichia coli [12]) [mm]	MIC (Candida albicans [13]) [µg/mL]	zone of inhibition at 400 µg/disc (Pseudomonas aeruginosa [14]) [mm]	MIC (Escherichia coli [15]) [µg/mL]	MIC [16] [µg/mL]	zone of inhibition at 400 µg/disc (Staphylococcus aureus [17]) [mm]	MIC [18] [µg/mL]	MIC (Escherichia coli [19]) [µg/mL]	MIC (Candida albicans [20]) [µg/mL]	further results
C=CCNC(=O)[C@H](CC)[C@H]1CC[C@H](C)[C@H]([C@@H](C)[C@H](O)[C@H](C)C(=O)[C@H](CC)[C@H]2O[C@]3(C=C[C@@H](O)[C@]4(CC[C@@](C)([C@H]5CC[C@](O)(CC)[C@H](C)O5)O4)O3)[C@H](C)C[C@@H]2C)O1 [SALINOMYCIN ALLYL AMIDE]	≥ 256	10	10	10	10	≥ 256	10	10	≥ 256	10	≥ 256	10	≥ 256	10	≥ 256	≥ 256	10	≥ 256	≥ 256	≥ 256	MIC (Pseudomonas aeruginosa [21]): ≥ 256 µg/mL; MIC (Staphylococcus aureus [22]): ≥ 256 µg/mL; zone of inhibition at 400 µg/disc [23]: 10 mm; MIC [24]: ≥ 256 µg/mL; MIC (Pseudomonas aeruginosa [25]): ≥ 256 µg/mL; zone of inhibition at 400 µg/disc [26]: 10 mm; zone of inhibition at 400 µg/disc (Pseudomonas aeruginosa [27]): 10 mm; MIC (Candida parapsilosis): ≥ 256 µg/mL; MIC (Proteus vulgaris [28]): ≥ 256 µg/mL; MIC (Staphylococcus aureus [29]): ≥ 256 µg/mL; zone of inhibition at 400 µg/disc (Staphylococcus aureus [30]): 10 mm
CC[C@@H](C(=O)[C@@H](C)[C@@H](O)[C@H](C)[C@@H]1O[C@@H]([C@@H](CC)C(=O)NCCc2c[nH]c3ccccc23)CC[C@@H]1C)[C@H]1O[C@]2(C=C[C@@H](O)[C@]3(CC[C@@](C)([C@H]4CC[C@](O)(CC)[C@H](C)O4)O3)O2)[C@H](C)C[C@@H]1C	≥ 256	10	10	10	10	≥ 256	10	10	≥ 256	10	≥ 256	10	≥ 256	10	≥ 256	≥ 256	10	≥ 256	≥ 256	≥ 256	MIC (Pseudomonas aeruginosa [21]): ≥ 256 µg/mL; MIC (Staphylococcus aureus [22]): ≥ 256 µg/mL; zone of inhibition at 400 µg/disc [23]: 10 mm; MIC [24]: ≥ 256 µg/mL; MIC (Pseudomonas aeruginosa [25]): ≥ 256 µg/mL; zone of inhibition at 400 µg/disc [26]: 10 mm; zone of inhibition at 400 µg/disc (Pseudomonas aeruginosa [27]): 10 mm; MIC (Candida parapsilosis): ≥ 256 µg/mL; MIC (Proteus vulgaris [28]): ≥ 256 µg/mL; MIC (Staphylococcus aureus [29]): ≥ 256 µg/mL; zone of inhibition at 400 µg/disc (Staphylococcus aureus [30]): 10 mm
CC[C@@H](C(=O)[C@@H](C)[C@@H](O)[C@H](C)[C@@H]1O[C@@H]([C@@H](CC)C(=O)NCCOCCOCCOC)CC[C@@H]1C)[C@H]1O[C@]2(C=C[C@@H](O)[C@]3(CC[C@@](C)([C@H]4CC[C@](O)(CC)[C@H](C)O4)O3)O2)[C@H](C)C[C@@H]1C	≥ 256	10	10	10	10	≥ 256	10	10	≥ 256	10	≥ 256	10	≥ 256	10	≥ 256	≥ 256	10	≥ 256	≥ 256	≥ 256	MIC (Pseudomonas aeruginosa [21]): ≥ 256 µg/mL; MIC (Staphylococcus aureus [22]): ≥ 256 µg/mL; zone of inhibition at 400 µg/disc [23]: 10 mm; MIC [24]: ≥ 256 µg/mL; MIC (Pseudomonas aeruginosa [25]): ≥ 256 µg/mL; zone of inhibition at 400 µg/disc [26]: 10 mm; zone of inhibition at 400 µg/disc (Pseudomonas aeruginosa [27]): 10 mm; MIC (Candida parapsilosis): ≥ 256 µg/mL; MIC (Proteus vulgaris [28]): ≥ 256 µg/mL; MIC (Staphylococcus aureus [29]): ≥ 256 µg/mL; zone of inhibition at 400 µg/disc (Staphylococcus aureus [30]): 10 mm
